# Laboratory results from publication PMC12320299 (Chemical Science, 2025).
# Tested on: SW480 cancer cells
# Assay: Proteome profiling of compound-treated SW480 cancer cells (24 h, approx. IC50, CYT and NE fractions)
# Format: cell-based, human
# Protocol: To gain insight into potential modes of action and derive structure–activity relationships on a molecular level, proteomic profiling experiments were carried out based on label-free quantification (LFQ) by nano-liquid chromatography tandem mass spectrometry (nLC-MS/MS). […] Six replicates were used per condition. The perturbations were evaluated at subcellular resolution by fractionating cells into cytoplasmic (CYT) and nuclear (NE) protein fractions. Those have been separately proteolytically digested and analysed (Fig. 3A). The perturbations with the 3-Et-NQ and 3-Morph-NQ complexes were performed against their respective solvent-treated controls (CON), yielding a total of 72 samples. […] Statistical significance of individual protein regulations was calculated by multiple testing-corrected P-values based on 5% false discovery rate (FDR = 0.05 and S0 = 0.1).
# The position of each group represents the summed fold-changes of the individual proteins in the group according to the subcellular space, i.e., CYT and NE fractions, while the size represents the number of proteins in each group. […]
# Proteome profiling of compound-treated SW480 cancer cells […]
# cells per well and left to adhere in complete cell culture medium. After 24 h, the medium was exchanged with fresh complete medium (DMSO mock control) or fresh medium containing […]
# solution in DMSO, respectively) and incubated for another 24 h. Each condition was carried out in hexuplicates. The cells were processed according to a nucleocytoplasmic fractionation protocol as previously described.3 All steps were performed on ice. The medium was removed, and the cells were washed twice with 1×PBS (phosphate buffered saline, 3 mL). Then, PBS was thoroughly removed. Isotonic lysis buffer (10 mM HEPES, 10 mM NaCl, 3.5 mM MgCl2, 1 mM EGTA, 0.25 M Sucrose, 0.5% Triton X-100) containing protease inhibitors (1% PMSF, Sigma, and 1% protease and phosphatase inhibitor cocktail, Roche) was added to the flasks, the cells were scraped off and transferred into labelled 15 mL Falcon tubes. The cellular membrane was ruptured using shear stress by pressing the cell suspension through a syringe 9–12 times. Membrane rupture with intact nuclei was monitored under a microscope. After centrifugation (960 g, 5 min), the supernatant containing the cytoplasmic (CYT) proteins was transferred into new tubes containing ice-cold ethanol (1 : 5, HPLC grade) and precipitated […]
# overnight at –20 °C. The pellet containing the nuclei was incubated with a hypertonic solution (10 mM Tris-HCl, 1 mM EDTA and 0.5 M NaCl) and subsequently diluted 1:10 with NP-40 buffer (10 mm Tris-HCl, 1 mm EDTA and 0.5% Triton X-100) containing protease inhibitors (1% PMSF, Sigma, and 1% protease and phosphatase inhibitor cocktail, Roche). After centrifugation (960 g, 5 min), the soluble nuclear (NE) proteins were also transferred into new tubes containing ice-cold ethanol (1 : 5, HPLC grade) and precipitated overnight at –20 °C.
# The precipitated proteins were finally pelleted by centrifugation (5000 g, 30 min, 4 °C), the solution was decanted and the pellet dried under vacuum.
structure (smiles),measurement,setting,value
Cc1ccc(C(C)C)cc1.O=C1C(CN2CCOCC2)=C2[O][Ru][O]C2(n2cccn2)c2ccccc21 (centres unmarked) [Compound 1b],"N° significantly regulated proteins, Total",CYT and NE,1498
same,"GO BP Cell cycle, summed fold-changes",CYT fraction,-2.0
same,"GO BP Cell division, summed fold-changes",CYT fraction,1.8
same,"GO BP Chromatin organization, summed fold-changes",CYT fraction,-9.6
same,"GO BP DNA damage response, summed fold-changes",CYT fraction,-1.3
same,"GO BP DNA repair, summed fold-changes",CYT fraction,-5.7
same,"GO BP DNA replication, summed fold-changes",CYT fraction,-0.75
same,"GO BP Intracellular protein transport, summed fold-changes",CYT fraction,-1.2
same,"GO BP Mitotic cytokinesis, summed fold-changes",CYT fraction,0.635
same,"GO BP Negative regulation of DNA-templated transcription, summed fold-changes",CYT fraction,-4.7
same,"GO BP Nucleocytoplasmic transport, summed fold-changes",CYT fraction,0.157
same,"GO BP Positive regulation of DNA-templated transcription, summed fold-changes",CYT fraction,-4.1
same,"GO BP Proteasome-mediated ubiquitin-dependent protein catabolic process, summed fold-changes",CYT fraction,0.556
same,"GO BP Protein folding, summed fold-changes",CYT fraction,0.665
same,"GO BP Protein stabilization, summed fold-changes",CYT fraction,1.4
same,"GO BP Protein transport, summed fold-changes",CYT fraction,-4.1
same,"GO BP Purine nucleotide biosynthetic process, summed fold-changes",CYT fraction,-1.4
same,"GO BP RNA splicing, summed fold-changes",CYT fraction,2.7
same,"GO BP Regulation of apoptotic process, summed fold-changes",CYT fraction,-0.9
same,"GO BP Regulation of cell fate specification, summed fold-changes",CYT fraction,-2.6
same,"GO BP Regulation of double-strand break repair, summed fold-changes",CYT fraction,-0.5
same,"GO BP Regulation of stem cell differentiation, summed fold-changes",CYT fraction,-2.1
same,"GO BP Response to oxidative stress, summed fold-changes",CYT fraction,-2.8
same,"GO BP Ribosomal small subunit biogenesis, summed fold-changes",CYT fraction,3.8
same,"GO BP Ribosome biogenesis, summed fold-changes",CYT fraction,1.0
same,"GO BP Ubiquitin-dependent protein catabolic process, summed fold-changes",CYT fraction,-4.3
same,"GO BP Vesicle-mediated transport, summed fold-changes",CYT fraction,-2.0
same,"GO BP mRNA processing, summed fold-changes",CYT fraction,2.8
same,"GO BP mRNA splicing, via spliceosome, summed fold-changes",CYT fraction,5.8
same,"GO BP mRNA transport, summed fold-changes",CYT fraction,3.1
same,"GO BP rRNA processing, summed fold-changes",CYT fraction,6.9
same,"GO CC Azurophil granule lumen, summed fold-changes",CYT fraction,-3.8
same,"GO CC Chromatin, summed fold-changes",CYT fraction,-3.8
same,"GO CC Chromosome, centromeric region, summed fold-changes",CYT fraction,2.2
same,"GO CC Chromosome, summed fold-changes",CYT fraction,0.0303
same,"GO CC Chromosome, telomeric region, summed fold-changes",CYT fraction,-5.4
same,"GO CC Condensin complex, summed fold-changes",CYT fraction,1.7
same,"GO CC Cytoskeleton, summed fold-changes",CYT fraction,2.2
same,"GO CC Endosome, summed fold-changes",CYT fraction,-2.0
same,"GO CC Extracellular exosome, summed fold-changes",CYT fraction,-48.5
same,"GO CC Fibrillar center, summed fold-changes",CYT fraction,1.3
same,"GO CC Ficolin-1-rich granule lumen, summed fold-changes",CYT fraction,-4.9
same,"GO CC Focal adhesion, summed fold-changes",CYT fraction,-5.9
same,"GO CC Intracellular membrane-bounded organelle, summed fold-changes",CYT fraction,-2.0
same,"GO CC Kinetochore, summed fold-changes",CYT fraction,1.6
same,"GO CC Lipid droplet, summed fold-changes",CYT fraction,-1.3
same,"GO CC Lysosome, summed fold-changes",CYT fraction,-2.9
same,"GO CC Microtubule cytoskeleton, summed fold-changes",CYT fraction,1.6
same,"GO CC Mitochondrion, summed fold-changes",CYT fraction,-13.5
same,"GO CC Nuclear envelope, summed fold-changes",CYT fraction,-0.6
same,"GO CC Nuclear speck, summed fold-changes",CYT fraction,3.4
same,"GO CC Nucleolus, summed fold-changes",CYT fraction,1.4
same,"GO CC Nucleoplasm, summed fold-changes",CYT fraction,-8.6
same,"GO CC Nucleus, summed fold-changes",CYT fraction,-23.5
same,"GO CC Proteasome complex, summed fold-changes",CYT fraction,0.475
same,"GO CC Protein-containing complex, summed fold-changes",CYT fraction,-2.9
same,"GO CC Ribonucleoprotein complex, summed fold-changes",CYT fraction,3.1
same,"GO CC SCAR complex, summed fold-changes",CYT fraction,0.9
same,"GO CC Small-subunit processome, summed fold-changes",CYT fraction,4.9
same,"GO CC Spliceosomal complex, summed fold-changes",CYT fraction,2.7
same,"GO CC Transcription repressor complex, summed fold-changes",CYT fraction,-2.7
same,"GO CC Vesicle, summed fold-changes",CYT fraction,-2.7
same,"KEGG pathway ATP-dependent chromatin remodeling, summed fold-changes",CYT fraction,-1.8
same,"KEGG pathway Apoptosis, summed fold-changes",CYT fraction,2.5
same,"KEGG pathway Basal transcription factors, summed fold-changes",CYT fraction,-1.0
same,"KEGG pathway Biosynthesis of amino acids, summed fold-changes",CYT fraction,-5.4
same,"KEGG pathway Biosynthesis of cofactors, summed fold-changes",CYT fraction,2.8
same,"KEGG pathway Cell cycle, summed fold-changes",CYT fraction,-3.3
same,"KEGG pathway Nucleocytoplasmic transport, summed fold-changes",CYT fraction,0.8
same,"KEGG pathway Polycomb repressive complex, summed fold-changes",CYT fraction,-2.9
same,"KEGG pathway Proteasome, summed fold-changes",CYT fraction,-0.152
same,"KEGG pathway Ribosome biogenesis in eukaryotes, summed fold-changes",CYT fraction,1.9
same,"GO BP Cell cycle, summed fold-changes",NE fraction,26.1
same,"GO BP Cell division, summed fold-changes",NE fraction,26.9
